Results on 2 compounds are retold here after patent US9315487B2, “Tetrahydroquinoline derivatives useful as bromodomain inhibitors” (GlaxoSmithKline LLC, priority 2011, dated 2016).

The test system of data set [1] is W12 cells (episomal HPV16 genomes). Description: Measurement of HPV infected cells: W12 cell viability. The class given is cell-based. The conditions noted are these: Human papillomavirus 16, 48 h, 2 days. On the procedure:
(§1) Measurement of HPV Infected Cells The […] cell clone #20850, derived from a low grade cervical […] (Stanley et al., Int. J. Cancer. V. 43. p. 672-676. 1989), carries episomal HPV16 genomes, maintained at approximately 100 copies per cell. Epithelial cell line C33A, which is not infected with any HPV strain was used as a negative control cell to assess non-specific cytotoxicity. […] and C33A cells were cultured with the compound of Example 2 for 2 days and viable cell content monitored by assaying [ATP] at end of this period. Data was normalised to DMSO control treated cells on day 2.

Another data set concerns the target T1, Bromodomain BRD4 (Homo sapiens, UniProt O60885).
T1 construct: BRD4 (1-477); made in house; host or cells: E. coli (pET15b vector)
Kind of data set: Time Resolved Fluorescence Resonance Energy Transfer (TR-FRET) assay, BRD4. It is filed as binding. The conditions noted are these: BRD4 (1-477), acetylated histone peptide. On the procedure: (§2) Time Resolved Fluorescence Resonance […] Transfer (TR-FRET) Assay
(§3) The binding of the compounds of formula (I) to Bromodomains BRD2, BRD3 and BRD4 was assessed using a time resolved fluorescent resonance energy transfer binding assay, that measures the binding of an acetylated histone peptide to the bromodomain protein.
(§4) The bromodomain protein, histone peptide and a variable concentration of test compound are incubated together to reach thermodynamic equilibrium.
(§5) The protected peptide was assembled on a solid-phase synthesiser using preloaded Wang resin and utilising standard Fmoc synthesis protocols. The C-terminal lysine was protected by a hyper acid-labile group allowing for its selective removal at the end of the assembly and attachment of the biotin. The crude peptide was obtained after cleavage from the resin with a mixture of trifluoroacetic acid (TFA), triisopropylsilane and water (95:2.5:2.5) for 3 h at room temperature and was then purified using a C18 reverse-phase column utilising a 0.1% TFA-buffered water/acetonitrile gradient. The resulting fractions were analysed and fractions which were >95% pure by analytical HPLC and giving the correct mw (by MALDiTOF mass spectroscopy) were pooled and freeze dried. The final material was analysed by HPLC to confirm purity.
(§6) Recombinant Human Bromodomains (BRD2 (1-473), BRD3 (1-435) and BRD4 (1-477)) were expressed in E. coli cells (in pET15b vector) with a six-His tag at the N-terminal. The His-tagged Bromodomain was extracted from E. coli cells using sonication and purified using a nickel sepharose 6FF column, the proteins were washed and then eluted with 50 mM Tris-Hcl pH8.0. 300 mM NaCl, 1 mM β-mercaptoethanol and 20 mM Imidazole. Further purification was performed by affinity chromatography on a HisTRAP HP column, eluting with a linear 0-500 mM […] gradient, over 20 column volumes. Final purification was completed by Superdex 200 prep grade size exclusion column. Purified protein was stored at −80 C in 20 mM HEPES pH 7.5 and 100 mM NaCl. Protein identity was confirmed by peptide mass fingerprinting and predicted molecular weight confirmed by mass spectrometry.
(§7) Protocol for Bromodomain BRD2, 3 and 4 Assays:
(§8) All assay components were dissolved in buffer composition of 50 mM HEPES pH7.4, 50 mM NaCl and 0.5 mM CHAPS. The final concentration of bromodomain proteins were 100 nM and the histone peptide was 300 nM, these components are premixed and allowed to equilibrate for 1 hour in the dark. 8 μl of this reaction mixture was added to all wells containing 50 nl of various concentrations of test compound or DMSO vehicle (0.5% final) in Greiner 384 well black low volume microtitre plates and incubated in dark for 60 mins at room temperature. […] detection mixture containing anti-6his XL665 labeled antibody and streptavidin labeled with europium cryptate was added to all wells and a further dark incubation of at least 30 mins was performed. Plates were then read on the Envision platereader, (λex=317 nm, donor λEM=615 nm; acceptor λEM=665 nm; Dichroic LANCE dual). Time resolved fluorescent intensity measurements were made at both emission wavelengths and the ratio of acceptor/donor was calculated and used for data analysis. All data was normalized to the mean of 16 high and 16 low control wells on each plate. A four parameter curve fit of the following form was then applied: y=a+((b−a)/(1+(10^x/10^c)^d)
(§9) Where ‘a’ is the minimum, ‘b’ is the Hill slope, ‘c’ is the pIC50 and ‘d’ is the maximum.

In data set [2] the test system is LPS induced IL-6 secretion from whole blood. Description: Measurement of LPS induced IL-6 secretion from whole blood. The class given is cell-based. The conditions noted are these: 24 h, LPS 200 ng/ml, IL-6 by immunoassay. On the procedure:
Measurement of LPS Induced IL-6 Secretion from Whole Blood
Activation of monocytic cells by agonists of toll-like receptors such as bacterial lipopolysaccharide (LPS) results in production of key inflammatory mediators including IL-6. Such pathways are widely considered to be central to the pathophysiology of a range of auto-immune and inflammatory disorders.
Compounds to be tested are diluted to give a range of appropriate concentrations of which 1 μl of the diluted stocks is added to a 96 well plate. Following addition of whole blood (130 μl) the plates are incubated at 37 degrees (5% CO2) for 30 min before the addition of 10 μl of 2.8 ug/ml LPS, diluted in complete RPMI 1640 (final concentration=200 ng/ml), to give a total volume of 140 ul per well. After further incubation for 24 hours at 37 degrees, 140 μl of PBS are added to each well. The plates are sealed, shaken for 10 minutes and then centrifuged (2500 rpm×10 min). 100 μl of the supernatant are removed and IL-6 levels assayed by immunoassay (typically by MesoScale Discovery technology) either immediately or following storage at −20 degrees. Concentration response curves for each compound was generated from the data and an IC50 value was calculated

Data set [3] in a line: Measurement of HPV infected cells: C33A negative control cell viability. The class given is cell-based. The conditions noted are these: human, 3 μM, normalised to DMSO control, read-out: Viability at the maximal tested concentration. As to the method: as §1
The next data set concerns C33A cells. The description is as above. The class given is cell-based. The conditions noted are these: 2 days, [ATP] assay. On the procedure:
as §1

The next data set concerns the target T2, Bromodomain BRD2 (Homo sapiens, UniProt P25440).
T2 construct: BRD2 (1-473); made in house; host or cells: E. coli (pET15b vector)
Description: Time Resolved Fluorescence Resonance Energy Transfer (TR-FRET) assay, BRD2. It is filed as binding. The conditions noted are these: BRD2 (1-473), acetylated histone peptide. On the procedure:
as §2, §3, §4, §5, §6, §7, §8, §9

For the next data set, the target named is T3, Bromodomain BRD3 (Homo sapiens, UniProt Q15059).
T3 construct: BRD3 (1-435); made in house; host or cells: E. coli (pET15b vector)
Kind of data set: Time Resolved Fluorescence Resonance Energy Transfer (TR-FRET) assay, BRD3. It is filed as binding. The conditions noted are these: BRD3 (1-435), acetylated histone peptide. On the procedure:
as §2, §3, §4, §5, §6, §7, §8, §9

Data set [4] concerns the target T4, Bromodomain BRD2, BRD3 and BRD4.
T4 construct: fused on or other part: six-His tag at the N-terminus
Kind of data set: Fluorescence Anisotropy Binding Assay. On the set-up: species or system Human. The conditions noted are these: tested in one or more of the BRD2, BRD3, BRD4 fluorescence anisotropy assays. From the text: Fluorescence Anisotropy Binding Assay
The binding of the compounds of formula (I) to Bromodomain BRD2, BRD3 and BRD4 may be assessed using a Fluorescence Anisotropy Binding Assay.
All data was normalized to the mean of 16 high and 16 low control wells on each plate. A four parameter curve fit of the following form was then applied: y=a+((b−a)/(1+(10^x/10^c)^d)
Where ‘a’ is the minimum, ‘b’ is the Hill slope, ‘c’ is the pIC50 and ‘d’ or is the maximum.
Recombinant Human Bromodomains (Bromodomain BRD2 (1-473), Bromodomain BRD3 (1-435) and Bromodomain BRD4 (1-477)) were expressed in E. coli cells (in pET15b vector) with a six-His tag at the N-terminal. The His-tagged Bromodomain was extracted from E. coli cells using 0.1 mg/ml lysozyme and sonication. […]
All components were dissolved in buffer composition of 50 mM HEPES pH7.4, 150 mm NaCl and 0.5 mM CHAPS with final concentrations of Bromodomain 2, 75 nM, fluorescent ligand 5 nM. […] Fluorescence anisotropy was read in Envision (λex=485 nm, λEM=530 nm; Dichroic −505 nM). […]
All components were dissolved in buffer of composition 50 mM HEPES pH7.4, 150 mm NaCl and 0.5 mM CHAPS with final concentrations of Bromodomains 3 75 nM, fluorescent ligand 5 nM. […] Fluorescence anisotropy was read in Envision (λex=485 nm, λEM=530 nm; Dichroic −505 nM). […]

Each structure is given as a SMILES string. Values joined by “and” are separate entries in the source; they are usually repeats but may differ in a detail not shown here. Equal values may be shown once.

T3 sequence (Q15059 1-435): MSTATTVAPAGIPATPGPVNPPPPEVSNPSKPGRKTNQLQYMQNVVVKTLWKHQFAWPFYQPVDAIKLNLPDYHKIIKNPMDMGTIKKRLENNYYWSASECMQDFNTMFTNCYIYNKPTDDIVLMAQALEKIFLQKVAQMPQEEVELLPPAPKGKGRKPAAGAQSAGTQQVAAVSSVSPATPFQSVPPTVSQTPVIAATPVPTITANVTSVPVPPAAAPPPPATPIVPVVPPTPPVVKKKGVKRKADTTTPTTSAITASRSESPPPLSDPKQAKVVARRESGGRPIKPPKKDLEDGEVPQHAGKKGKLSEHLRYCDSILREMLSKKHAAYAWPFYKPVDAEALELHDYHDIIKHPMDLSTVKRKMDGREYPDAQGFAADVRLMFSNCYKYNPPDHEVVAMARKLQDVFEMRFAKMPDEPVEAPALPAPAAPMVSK
T2 sequence (P25440 1-473): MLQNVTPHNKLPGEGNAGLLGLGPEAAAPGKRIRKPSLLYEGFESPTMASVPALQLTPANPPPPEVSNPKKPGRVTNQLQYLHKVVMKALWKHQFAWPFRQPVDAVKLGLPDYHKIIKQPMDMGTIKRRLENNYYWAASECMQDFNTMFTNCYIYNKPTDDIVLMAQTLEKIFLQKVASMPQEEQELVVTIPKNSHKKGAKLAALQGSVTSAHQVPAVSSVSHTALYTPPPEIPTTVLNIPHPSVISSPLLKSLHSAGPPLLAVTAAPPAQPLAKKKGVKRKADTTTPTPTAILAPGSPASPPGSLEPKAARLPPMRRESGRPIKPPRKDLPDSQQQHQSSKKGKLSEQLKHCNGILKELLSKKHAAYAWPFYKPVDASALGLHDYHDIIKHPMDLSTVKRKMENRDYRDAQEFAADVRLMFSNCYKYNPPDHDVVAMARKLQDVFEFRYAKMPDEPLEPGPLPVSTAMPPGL

For `COCCn1cc(-c2ccc3c(c2)[C@H](Nc2ccc(C#N)cn2)C[C@H](C)N3C(C)=O)cn1` [Example 2, 6-(((2S,4R)-1-acetyl-6-(1-(2-methoxyethyl)-1H-pyrazol-4-yl)-2-methyl-1,2,3,4-tetrahydroquinolin-4-yl)amino)nicotinonitrile], the viability at 3 µM in data set [1] (3 μM, normalised to DMSO control, read-out: Viability at the maximal tested concentration) turned out to be 34.8%. Moreover, the IC50 was 81.3 nM in data set [1] ([ATP] assay, n=4, read-out: mean pIC50 value, W12 cell viability (converted)); 63.1 to 126 nM and 63.1 to 316 nM at Bromodomain BRD4; 200 nM in data set [2]; 63.1 to 126 nM and 63.1 to 316 nM on Bromodomain BRD2; 63.1 to 126 nM and 63.1 to 316 nM on Bromodomain BRD3. In data set [3], the viability at 2 days, 3 µM was found to be 73.5%. In addition, in the data set with C33A cells, the “effect on C33A negative control cells (viability)” value is “limited effect”.
`COCCn1cc(-c2ccc3c(c2)[C@H](NC(=O)OC(C)C)C[C@H](C)N3C(C)=O)cn1` [Example 1, 1-methylethyl ((2S,4R)-1-acetyl-2-methyl-6-{1-[2-(methyloxy)ethyl]-1H-pyrazol-4-yl}-1,2,3,4-tetrahydro-4-quinolinyl)carbamate] gave an IC50 in data set [2] of 126 to 1000 nM. In data set [4], this compound showed a pIC50 not below 6.5.
